# Measurements from paper PMC8312610, “F4, a collagen XIX-derived peptide, inhibits tumor angiogenesis through αvβ3 and α5β1 integrin interaction” (Cell Adhesion & Migration, 2021).
# Positions of bridges follow the written chain, without caps; N, C: chain ends. No end group written: not given here.
# How the values were obtained:
# [1] = test system: α5β1 integrin; assay: F4 affinity chromatography of HUVEC extracts with western blot; assay type: binding, human; conditions: HUVEC protein extract, F4 peptide-Sepharose (F4 reduced with DTT), NaCl elution 0.15, 0.6 and 1.0 M, +4°C, N = 2
# Description: (§1) HUVEC were cultured as previously described in a Nunclon® 150 cm^2 flask. At 80%-confluence, cells were washed with HBSS and scrapped in lysis buffer (RIPA buffer, Sigma, ref R0278-50ML) supplemented with 1% (v/v) Halt Protease Inhibitor Cocktail (ThermoFisher, ref 78430). Cell lysates were incubated for 30 min at +4°C and vortexed every 5 min. Unsoluble debris were pelleted by centrifugation at 10,000 g for 10 min at +4°C. Bio-Rad Protein Assay (Bio-Rad, Marne-La-Coquette, France) was used to determine the protein concentrations according to the manufacturer’s instructions. […] HUVEC protein extracts were chromatographed at +4°C. Unbound protein were removed with 30 mL of washing buffer (10 mM Tris, 1 mM CaCl2, 1 mM MgCl2, pH 7.6, 1% (v/v) Protease Inhibitor Cocktail and 0.1% (w/v) octylglucoside (Sigma, ref O8001-100 MG)) according to the manufacturer’s instructions. Proteins bound to the affinity column were then eluted with elution buffer (10 mM Tris, pH 7.6, 1% (w/v) PIC and 0.1% (w/v) octylglucoside) supplemented with increasing concentrations of NaCl (0.15, 0.6 and 1 M). Absorbance was read at 280 nm to check protein elution and fractions corresponding to the different NaCl concentrations were pooled and concentrated using NanoSep Centrifugal Devices (cutoff 10 kDa; Pall). […]
# [2] = test system: αvβ3 integrin; assay: as above; assay type: binding, human; conditions: HUVEC protein extract, F4 peptide-Sepharose (F4 reduced with DTT), NaCl elution 0.15, 0.6 and 1.0 M, +4°C, N = 2
# Description: as §1
# [3] = test system: α5β1 integrin; assay: Solid phase assay, direct binding to α5β1; design: species or system human; conditions: solid phase assays
# Text: Figure 5. F4 directly binds to αvβ3 and α5β1 integrins. Direct interaction between αvβ3 or α5β1 integrin and F4 was studied using solid phase assays as described in the material and method section. The F4 peptide was biotinylated to allow its detection using the streptavidin-peroxidase complex. Different conditions were used. (a-b) The amounts of coated αvβ3 (a) or α5β1 integrin (b) were increased while biotinylated F4 peptide was kept constant. (c-d) The concentration of biotinylated F4 peptide was increased while coated amounts of αvβ3 (c) or α5β1 (d) integrins were kept constant. (e-f) Competitive assays were performed using increasing concentrations of F4 peptide while biotinylated-F4 peptide and αvβ3 (e) or α5β1 (f) integrins were kept constant. […]
# Wells of a 96-well plate were coated with α5β1 (ref. 3230-A5-050, R&D systems) and/or αvβ3 integrin (ref. 3050-AV-050, R&D systems) at different concentrations ranging from 26 × 10^−7 mol/L to 0.1 × 10^−7 mol/L (100 μL per well in PBS). […] The intensity of the yellow coloration was measured at 450 nm with an LB940 spectrophotometer (Berthold Technologies).
# The optimum integrin amount for the coating was determined using the above protocol and the optimum ligand concentration was sought using different dilutions of the biotinylated-F4 peptide ranging from 20.8 × 10^−4 to 0.16 × 10^−4 mol/L.
# [4] = test system: melanoma cell; conditions: cited from earlier work
# Text: (§2) The aim of the present work was to study the anti-angiogenic properties of F4 peptide. […] By affinity chromatography, we identified αvβ3 and α5β1 integrins as potential receptors for F4 peptide on endothelial cell surface. Using solid phase assays, ... || Type XIX collagen, that belongs to the FACIT family (Fibril-Associated Collagens with Interrupted Triple helices), is a minor collagen associated to the basement membrane zone.
# [5] = test system: mouse melanoma model; conditions: previously demonstrated by the authors, no ref in abstract; cited from earlier work
# Text: as §2
sequence,measurement,setting,value
"CNPEDCLYPVSHAHQR (disulfide 1-6 (inferred)) [F4, collagen XIX-derived peptide, released by plasmin from type XIX collagen]",α5 and β1 subunits bound to F4 column (western blot),[1],two bands in 0.6 M NaCl eluted sample which matched the 140 and 120 kDa bands of the recombinant α5β1 integrin
same,αv and β3 subunits bound to F4 column (western blot),[2],two bands which matched the 150 and 110 kDa bands of the recombinant αvβ3 integrin
same,direct binding to α5β1 (conclusion),[3],binds to both αvβ3 and α5β1 integrins in a direct manner
same,melanoma cell migration,"[4]; in vitro, previously demonstrated by the authors, no ref in abstract",able to inhibit melanoma cell migration
same,"melanoma cell migration, compared with NC1(XIX) domain",[4]; ref [24],reproduced the whole NC1(XIX) domain effect on melanoma cell migration
same,cancer progression in mouse melanoma model,[5],cancer progression in a mouse melanoma model
